ChEMBL document CHEMBL3045869, “Efficacy of fungicides with various modes of action in controlling the early stages of an Erysiphe necator-induced epidemic” (2010)
Calls of active or inactive are those of the source. No cut-off for these calls is given here.

Tests used:
Erysiphe necator [1] = experiment: Antifungal activity against Erysiphe necator biotype B assessed as number of spores at 0.625 g a.i./l applied 13 days post-inoculation measured after 14 days during cycle 2 by leaf-disk method (reference value: 47.6 x 10^3 cm'-2); format: functional
Erysiphe necator [2] = experiment: Antifungal activity against Erysiphe necator biotype B assessed as AUDPC at 0.625 g a.i./l applied 48 hr post-inoculation measured after 14 days by leaf-disk method (reference value: 394); format: functional
Erysiphe necator [3] = experiment: Antifungal activity against Erysiphe necator biotype B assessed as AUDPC at 0.625 g a.i./l applied 4 days post-inoculation measured after 14 days during cycle 2 by leaf-disk method (reference value: 844); format: functional
Erysiphe necator [4] = experiment: Antifungal activity against Erysiphe necator biotype B assessed as AUDPC at 0.625 g a.i./l applied 4 days post-inoculation measured after 14 days during cycle 1 by leaf-disk method (reference value: 695.6); format: functional
Erysiphe necator [5] = experiment: Antifungal activity against Erysiphe necator biotype B assessed as number of spores at 0.625 g a.i./l applied 4 days post-inoculation measured after 14 days during cycle 2 by leaf-disk method (reference value: 44.4 x 10^3 cm'-2); format: functional
Erysiphe necator [6] = experiment: Antifungal activity against Erysiphe necator biotype B assessed as AUDPC at 0.625 g a.i./l applied 13 days post-inoculation measured after 14 days during cycle 2 by leaf-disk method (reference value: 654); format: functional
Erysiphe necator [7] = experiment: Antifungal activity against Erysiphe necator biotype B assessed as disease severity at 0.625 g a.i./l applied 48 hr post-inoculation measured after 7 days by leaf-disk method relative to untreated-control; format: functional
Erysiphe necator [8] = experiment: Antifungal activity against Erysiphe necator biotype B assessed as disease severity at 0.625 g a.i./l applied 48 hr post-inoculation measured after 14 days by leaf-disk method relative to untreated-control; format: functional
Erysiphe necator [9] = experiment: Antifungal activity against Erysiphe necator biotype B assessed as disease severity at 0.625 g a.i./l applied 4 days post-inoculation measured after 14 days during cycle 1 by leaf-disk method relative to untreated-control; format: functional
Erysiphe necator [10] = experiment: Antifungal activity against Erysiphe necator biotype B assessed as number of spores at 0.625 g a.i./l applied 4 days post-inoculation measured after 14 days during cycle 1 by leaf-disk method (reference value: 35.9 x 10^3 cm'-2); format: functional
Erysiphe necator [11] = experiment: Antifungal activity against Erysiphe necator biotype B assessed as number of spores at 0.625 g a.i./l applied 48 hr post-inoculation measured after 14 days by leaf-disk method (reference value: 43.5 x 10^3 cm'-2); format: functional
Erysiphe necator [12] = experiment: Antifungal activity against Erysiphe necator biotype B assessed as disease severity at 0.625 g a.i./l applied 4 days post-inoculation measured immediately during cycle 1 by leaf-disk method relative to untreated-control; format: functional
Erysiphe necator [13] = experiment: Antifungal activity against Erysiphe necator biotype B assessed as AUDPC at 0.5 g a.i./l applied 4 days post-inoculation measured after 14 days during cycle 2 by leaf-disk method (reference value: 844); format: functional
Erysiphe necator [14] = experiment: Antifungal activity against Erysiphe necator biotype B assessed as AUDPC at 0.5 g a.i./l applied 4 days post-inoculation measured after 14 days during cycle 1 by leaf-disk method (reference value: 695.6); format: functional
Erysiphe necator [15] = experiment: Antifungal activity against Erysiphe necator biotype B assessed as number of spores at 0.5 g a.i./l applied 4 days post-inoculation measured after 14 days during cycle 1 by leaf-disk method (reference value: 35.9 x 10^3 cm'-2); format: functional
Erysiphe necator [16] = experiment: Antifungal activity against Erysiphe necator biotype B assessed as reduction in AUDPC at 0.5 g a.i./l applied 4 days post-inoculation measured after 11 days during cycle 2 by leaf-disk method relative to untreated-control; format: functional, organism-based
Erysiphe necator [17] = experiment: Antifungal activity against Erysiphe necator biotype B assessed as reduction in mycelial growth at 0.5 g a.i./l applied 4 days post-inoculation measured after 11 days during cycle 2 by leaf-disk method relative to untreated-control; format: functional, organism-based
Erysiphe necator [18] = experiment: Antifungal activity against Erysiphe necator biotype B assessed as disease severity at 0.5 g a.i./l applied 4 days post-inoculation measured after 14 days during cycle 1 by leaf-disk method relative to untreated-control; format: functional
Erysiphe necator [19] = experiment: Antifungal activity against Erysiphe necator biotype B assessed as disease severity at 0.5 g a.i./l applied 13 days post-inoculation measured after 14 days during cycle 2 by leaf-disk method relative to untreated-control; format: functional
Erysiphe necator [20] = experiment: Antifungal activity against Erysiphe necator biotype B assessed as AUDPC at 0.5 g a.i./l applied 13 days post-inoculation measured after 14 days during cycle 2 by leaf-disk method (reference value: 654); format: functional
Erysiphe necator [21] = experiment: Antifungal activity against Erysiphe necator biotype B assessed as disease severity at 0.5 g a.i./l applied 13 days post-inoculation measured after 6 days during cycle 2 by leaf-disk method relative to untreated-control; format: functional
Erysiphe necator [22] = experiment: Antifungal activity against Erysiphe necator biotype B assessed as number of spores at 0.5 g a.i./l applied 13 days post-inoculation measured after 14 days during cycle 2 by leaf-disk method (reference value: 47.6 x 10^3 cm'-2); format: functional
Erysiphe necator [23] = experiment: Antifungal activity against Erysiphe necator biotype B assessed as number of spores at 0.5 g a.i./l applied 48 hr post-inoculation measured after 14 days by leaf-disk method (reference value: 43.5 x 10^3 cm'-2); format: functional
Erysiphe necator [24] = experiment: Antifungal activity against Erysiphe necator biotype B assessed as number of spores at 0.5 g a.i./l applied 4 days post-inoculation measured after 14 days during cycle 2 by leaf-disk method (reference value: 44.4 x 10^3 cm'-2); format: functional
Erysiphe necator [25] = experiment: Antifungal activity against Erysiphe necator biotype B assessed as reduction in sporulation at 0.5 g a.i./l applied 4 days post-inoculation measured after 11 days during cycle 2 by leaf-disk method relative to untreated-control; format: functional, organism-based
Erysiphe necator [26] = experiment: Antifungal activity against Erysiphe necator biotype B assessed as reduction in disease severity at 0.5 g a.i./l applied 48 hr post-inoculation measured after 14 days by leaf-disk method relative to untreated-control; format: functional, organism-based
Erysiphe necator [27] = experiment: Antifungal activity against Erysiphe necator biotype B assessed as AUDPC at 0.5 g a.i./l applied 48 hr post-inoculation measured after 14 days by leaf-disk method (reference value: 394); format: functional
Erysiphe necator [28] = experiment: Antifungal activity against Erysiphe necator biotype B assessed as disease severity at 0.5 g a.i./l applied 4 days post-inoculation measured immediately during cycle 1 by leaf-disk method relative to untreated-control; format: functional
Erysiphe necator [29] = experiment: Antifungal activity against Erysiphe necator biotype B assessed as reduction in disease severity at 0.5 g a.i./l applied 4 days post-inoculation measured after 11 days during cycle 2 by leaf-disk method relative to untreated-control; format: functional, organism-based
Erysiphe necator [30] = experiment: Antifungal activity against Erysiphe necator biotype B assessed as AUDPC at 1 g a.i./l applied 13 days post-inoculation measured after 14 days during cycle 2 by leaf-disk method (reference value: 654); format: functional
Erysiphe necator [31] = experiment: Antifungal activity against Erysiphe necator biotype B assessed as number of spores at 1 g a.i./l applied 4 days post-inoculation measured after 14 days during cycle 1 by leaf-disk method (reference value: 35.9 x 10^3 cm'-2); format: functional
Erysiphe necator [32] = experiment: Antifungal activity against Erysiphe necator biotype B assessed as inhibition of disease severity at 1 g a.i./l applied 48 hr post-inoculation measured after 14 days by leaf-disk method relative to control; format: functional; design: scale not given: the % may be the effect or the level left
Erysiphe necator [33] = experiment: Antifungal activity against Erysiphe necator biotype B assessed as disease severity at 1 g a.i./l applied 13 days post-inoculation measured after 14 days during cycle 2 by leaf-disk method relative to untreated-control; format: functional
Erysiphe necator [34] = experiment: Antifungal activity against Erysiphe necator biotype B assessed as inhibition of mycelial growth at 1 g a.i./l applied 48 hr post-inoculation measured after 14 days by leaf-disk method; format: functional, organism-based
Erysiphe necator [35] = experiment: Antifungal activity against Erysiphe necator biotype B assessed as number of spores at 1 g a.i./l applied 4 days post-inoculation measured after 14 days during cycle 2 by leaf-disk method (reference value: 44.4 x 10^3 cm'-2); format: functional
Erysiphe necator [36] = experiment: Antifungal activity against Erysiphe necator biotype B assessed as AUDPC at 1 g a.i./l applied 4 days post-inoculation measured after 14 days during cycle 2 by leaf-disk method (reference value: 844); format: functional
Erysiphe necator [37] = experiment: Antifungal activity against Erysiphe necator biotype B assessed as disease severity at 1 g a.i./l applied 4 days post-inoculation measured immediately during cycle 1 by leaf-disk method relative to untreated-control; format: functional
Erysiphe necator [38] = experiment: Antifungal activity against Erysiphe necator biotype B assessed as AUDPC at 1 g a.i./l applied 4 days post-inoculation measured after 14 days during cycle 1 by leaf-disk method (reference value: 695.6); format: functional
Erysiphe necator [39] = experiment: Antifungal activity against Erysiphe necator biotype B assessed as reduction in mycelial growth at 1 g a.i./l applied 13 days post-inoculation measured after 14 days during cycle 2 by leaf-disk method relative to untreated-control; format: functional, organism-based
Erysiphe necator [40] = experiment: Antifungal activity against Erysiphe necator biotype B assessed as AUDPC at 1 g a.i./l applied 48 hr post-inoculation measured after 14 days by leaf-disk method (reference value: 394); format: functional
Erysiphe necator [41] = experiment: Antifungal activity against Erysiphe necator biotype B assessed as number of spores at 1 g a.i./l applied 13 days post-inoculation measured after 14 days during cycle 2 by leaf-disk method (reference value: 47.6 x 10^3 cm'-2); format: functional
Erysiphe necator [42] = experiment: Antifungal activity against Erysiphe necator biotype B assessed as disease severity at 1 g a.i./l applied 13 days post-inoculation measured after 6 days during cycle 2 by leaf-disk method relative to untreated-control; format: functional
Erysiphe necator [43] = experiment: Antifungal activity against Erysiphe necator biotype B assessed as inhibition of mycelial growth at 1 g a.i./l applied 4 days post-inoculation measured on after 14 days during cycle 2 by leaf-disk method relative to untreated-control; format: functional, organism-based
Erysiphe necator [44] = experiment: Antifungal activity against Erysiphe necator biotype B assessed as number of spores at 1 g a.i./l applied 48 hr post-inoculation measured after 14 days by leaf-disk method (reference value: 43.5 x 10^3 cm'-2); format: functional
Erysiphe necator [45] = experiment: Antifungal activity against Erysiphe necator biotype B assessed as disease severity at 1 g a.i./l applied 4 days post-inoculation measured on day 13 during cycle 1 by leaf-disk method relative to untreated-control; format: functional

SMILES: CO/N=C(\C(=O)OC)c1ccccc1CO/N=C(\C)c1cccc(C(F)(F)F)c1
- Activity (Erysiphe necator [1]): 1 ×10³ /cm2
- AUDPC (Erysiphe necator [2]): 86
- AUDPC (Erysiphe necator [3]): 0
- AUDPC (Erysiphe necator [4]): 459
- Activity (Erysiphe necator [5]): 0.06 ×10³ /cm2
- AUDPC (Erysiphe necator [6]): 6
- Activity (Erysiphe necator [7]): 3%
- Activity (Erysiphe necator [8]): 31.8%
- Activity (Erysiphe necator [9]): 60%
- Activity (Erysiphe necator [10]): 0.2 ×10³ /cm2
- Activity (Erysiphe necator [11]): 2.1 ×10³ /cm2
- Activity (Erysiphe necator [12]): 24%

SMILES: Fc1ccc(Oc2ccnc3cc(Cl)cc(Cl)c23)cc1 [QUINOXYFEN]
- AUDPC (Erysiphe necator [13]): 6373
- AUDPC (Erysiphe necator [14]): 442
- Activity (Erysiphe necator [15]): 10.7 ×10³ /cm2
- Activity (Erysiphe necator [16]): Active
- Activity (Erysiphe necator [17]): inactive
- Activity (Erysiphe necator [18]): 60%
- Activity (Erysiphe necator [19]): 89%
- AUDPC (Erysiphe necator [20]): 361
- Activity (Erysiphe necator [21]): 5%
- Activity (Erysiphe necator [22]): 23.2 ×10³ /cm2
- Activity (Erysiphe necator [23]): 27.3 ×10³ /cm2
- Activity (Erysiphe necator [24]): 36.9 ×10³ /cm2
- Activity (Erysiphe necator [25]): inactive
- Activity (Erysiphe necator [26]): Active
- AUDPC (Erysiphe necator [27]): 354
- Activity (Erysiphe necator [28]): 24%
- Activity (Erysiphe necator [29]): inactive

SMILES: CC(C)(C)C(O)(CCc1ccc(Cl)cc1)Cn1cncn1 (stereo not given) [TEBUCONAZOLE]
- AUDPC (Erysiphe necator [30]): 612
- Activity (Erysiphe necator [31]): 0.2 ×10³ /cm2
- Activity (Erysiphe necator [32]): 0%
- Activity (Erysiphe necator [33]): 95%
- inhibition (Erysiphe necator [34]): Active
- Activity (Erysiphe necator [35]): 0.02 ×10³ /cm2
- AUDPC (Erysiphe necator [36]): 0
- Activity (Erysiphe necator [37]): 25%
- AUDPC (Erysiphe necator [38]): 56.6
- Activity (Erysiphe necator [39]): inactive
- AUDPC (Erysiphe necator [40]): 0
- Activity (Erysiphe necator [41]): 30.4 ×10³ /cm2
- Activity (Erysiphe necator [42]): 50%
- inhibition (Erysiphe necator [43]): Active
- Activity (Erysiphe necator [44]): 0.8 ×10³ /cm2
- Activity (Erysiphe necator [45]): 0%
